From publication PMC9512720, “Insight into the mechanism of molecular recognition between human Integrin-Linked Kinase and Cpd22 and its implication at atomic level” (Journal of Computer-Aided Molecular Design, 2022) come the findings set out here.

This assay addresses T1, Integrin-linked kinase (ILK) (Homo sapiens, UniProt Q13418).
T1 sequence (Q13418 1-452): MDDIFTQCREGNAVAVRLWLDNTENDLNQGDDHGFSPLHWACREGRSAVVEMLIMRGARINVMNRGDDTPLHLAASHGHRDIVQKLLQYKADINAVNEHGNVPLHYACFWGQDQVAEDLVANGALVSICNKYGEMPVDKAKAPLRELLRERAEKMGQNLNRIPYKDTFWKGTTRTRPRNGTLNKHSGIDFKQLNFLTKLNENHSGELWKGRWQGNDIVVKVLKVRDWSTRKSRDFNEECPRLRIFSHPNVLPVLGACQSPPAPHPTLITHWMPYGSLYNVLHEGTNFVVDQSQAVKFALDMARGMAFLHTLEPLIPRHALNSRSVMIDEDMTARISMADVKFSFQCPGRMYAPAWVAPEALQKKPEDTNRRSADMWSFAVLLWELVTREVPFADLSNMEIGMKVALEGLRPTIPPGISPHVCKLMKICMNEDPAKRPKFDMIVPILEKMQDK
As to the kind of experiment: SPR (Biacore X-100, ILK immobilized on CM5 chip by amine coupling, Cpd22 […]). It is filed as binding. (In general: Surface plasmon resonance follows binding to a sensor surface in real time, without labels.)

By Kd is commonly meant the free concentration of one partner at which half of the binding sites on the other are occupied at equilibrium, for simple one-to-one binding. High values mean weaker binding, low ones tighter binding. Turning to `CNC(=O)CCc1cc(-c2ccc(-c3ccc(C(F)(F)F)cc3)cc2)n(-c2ccc(N3CCNCC3)cc2)n1` [Cpd22], the dissociation constant Kd is roughly 592 µM.
